{
  "source": "patent US10167297B2",
  "about": "“Substituted pyridine compounds having herbicidal activity” (BASF SE, priority 2014, dated 2019)",
  "type_in_all_cases": "in vivo",
  "key": {"Zea mays [1]": {"system": "Zea mays", "assay": "greenhouse post-emergence herbicidal activity on crop plant corn (use examples)", "details": "ZEAMX (corn, crop plant), scale 0 to 100", "description": "(§1) The seeds of the test plants were sown separately for each species. For the pre-emergence treatment, the active ingredients, which had been suspended or emulsified in water, were applied directly after sowing by means of finely distributing nozzles. The containers were irrigated gently to promote germination and growth and subsequently covered with transparent plastic hoods until the plants had rooted. This cover caused uniform germination of the test plants, unless this had been impaired by the active ingredients. For the post-emergence treatment, the test plants were first grown to a height of 3 to 15 cm, depending on the plant habit, and only then treated with the active ingredients which had been suspended or emulsified in water. For this purpose, the test plants were either sown directly and grown in the same containers, or they were first grown separately as seedlings and transplanted into the test containers a few days prior to treatment. Depending on the species, the plants were kept at 10-25° C. or 20-35° C., respectively. The test period extended over 2 to 4 weeks. During this time, the plants were tended, and their response to the individual treatments was evaluated. Evaluation was carried out using a scale from 0 to 100. 100 means no emergence of the plants, or complete destruction of at least the aerial moieties, and 0 means no damage, or normal course of growth. A good herbicidal activity is given at values of at least 70 and a very good herbicidal activity is given at values of at least 85. The plants used in the greenhouse experiments were of the following species: [table]"}, "Stellaria media": {"system": "Stellaria media", "assay": "greenhouse post-emergence herbicidal activity (use examples)", "details": "STEME, scale 0 to 100", "description": "as §1"}, "Polygonum convolvulus [2]": {"system": "Polygonum convolvulus", "assay": "greenhouse post-emergence herbicidal activity (use examples)", "details": "POLCO, 0.063 kg/ha, scale 0 to 100", "description": "as §1"}, "Setaria viridis [3]": {"system": "Setaria viridis", "assay": "greenhouse post-emergence herbicidal activity (use examples)", "details": "SETVI, 0.063 kg/ha, scale 0 to 100", "description": "as §1"}, "Ambrosia artimisifolio": {"system": "Ambrosia artimisifolio", "assay": "comparative greenhouse post-emergence herbicidal activity", "details": "AMBEL, 20 days, scale 0 to 100", "method": "(§2) The herbicidal activity of the compounds I-5 (N-[2,6-dichloro-3-(8-hydroxy-6,6-dioxo-5H-thiopyrano[4,3-b]pyridin-7-yl)phenyl]-N-methyl-acetamide) and 1-19 (Methyl N-[2,6-dichloro-3-(8-hydroxy-5,5-dimethyl-6,6-dioxo-thiopyrano[4,3-b]pyridin-7-yl)phenyl]-N-methyl-carbamate) according to this invention was tested in comparison with compound I-5 disclosed on page 147 of WO 2012/084755 A1 (not of the invention). These comparative experiments were performed in greenhouse by using the following procedure:\n(§3) The culture containers used were plastic flowerpots containing loamy sand with approximately 3.0% of humus as the substrate. The seeds of the test plants were sown separately for each species.\n(§4) For the post-emergence treatment, the test plants were first grown to a height of 3 to 15 cm, depending on the plant habit, and only then treated with the active ingredients which had been suspended or emulsified in water using a volume of 375 I/ha and 1% of an Adjuvant. For this purpose, the test plants were either sown directly and grown in the same containers, or they were first grown separately as seedlings and transplanted into the test containers a few days prior to treatment.\n(§5) Depending on the species, the plants were kept at 10-25° C. (cold season grasses) or 20-35° C. (warm season grasses), respectively.\n(§6) The test period extended over 20 days. During this time, the plants were tended, and their response to the individual treatments was evaluated.\n(§7) Evaluation was carried out using a scale from 0 to 100. 100 means complete destruction of at least the aerial moieties, and 0 means no damage, or normal course of growth. A good herbicidal activity is given at values of at least 70 and a very good herbicidal activity is given at values of at least 85.\n(§8) The plants used in the greenhouse experiments were of the following species:\n(§9) The application rates in the post-emergence treatment were 0.1, 0.05 and 0.025 kg/ha, respectively."}, "Avena Fatua": {"system": "Avena Fatua", "assay": "comparative greenhouse post-emergence herbicidal activity", "details": "AVEFA, 20 days, scale 0 to 100", "method": "as §2, §3, §4, §5, §6, §7, §8, §9"}, "Lolium Multiflori": {"system": "Lolium Multiflori", "assay": "comparative greenhouse post-emergence herbicidal activity", "details": "LOLMU, 20 days, scale 0 to 100", "method": "as §2, §3, §4, §5, §6, §7, §8, §9"}, "Polygonum convolvulus [4]": {"system": "Polygonum convolvulus", "assay": "comparative greenhouse post-emergence herbicidal activity", "details": "POLCO, 20 days, scale 0 to 100", "method": "as §2, §3, §4, §5, §6, §7, §8, §9"}, "Echinocloa crus-galli [5]": {"system": "Echinocloa crus-galli", "assay": "comparative greenhouse post-emergence herbicidal activity", "details": "ECHCG, 20 days, scale 0 to 100", "method": "as §2, §3, §4, §5, §6, §7, §8, §9"}, "Setaria viridis [6]": {"system": "Setaria viridis", "assay": "comparative greenhouse post-emergence herbicidal activity", "details": "SETVI, 20 days, scale 0 to 100", "method": "as §2, §3, §4, §5, §6, §7, §8, §9"}, "Digitaria sanguine": {"system": "Digitaria sanguine", "assay": "comparative greenhouse post-emergence herbicidal activity", "details": "DIGSA, 20 days, scale 0 to 100", "method": "as §2, §3, §4, §5, §6, §7, §8, §9"}, "Bromus steliris": {"system": "Bromus steliris", "assay": "comparative greenhouse post-emergence herbicidal activity", "details": "BROST, 20 days, scale 0 to 100", "method": "as §2, §3, §4, §5, §6, §7, §8, §9"}, "Abuthilon avicennae": {"system": "Abuthilon avicennae", "assay": "comparative greenhouse post-emergence herbicidal activity", "details": "ABUTH, 20 days, scale 0 to 100", "method": "as §2, §3, §4, §5, §6, §7, §8, §9"}, "Zea mays [7]": {"system": "Zea mays", "assay": "comparative greenhouse post-emergence herbicidal activity on crop plant corn", "details": "ZEAMX (corn, crop plant), 20 days, scale 0 to 100", "method": "as §2, §3, §4, §5, §6, §7, §8, §9"}, "Setaria faberi": {"system": "Setaria faberi", "assay": "greenhouse post-emergence herbicidal activity (use examples)", "details": "SETFA, scale 0 to 100", "description": "as §1"}, "Echinocloa crus-galli [8]": {"system": "Echinocloa crus-galli", "assay": "greenhouse post-emergence herbicidal activity (use examples)", "details": "Echinochloa crus-galli, ECHCG, 0.050 kg/ha, scale 0 to 100", "description": "as §1"}, "Amaranthus retroflexus": {"system": "Amaranthus retroflexus", "assay": "greenhouse post-emergence herbicidal activity (use examples)", "details": "AMARE, 0.050 kg/ha, scale 0 to 100", "description": "as §1"}, "Thlaspi arvense": {"system": "Thlaspi arvense", "assay": "greenhouse post-emergence herbicidal activity (use examples)", "details": "THLAR, 0.031 kg/ha, scale 0 to 100", "description": "as §1"}, "Poa annua": {"system": "Poa annua", "assay": "greenhouse post-emergence herbicidal activity (use examples)", "details": "POAAN, 0.031 kg/ha, scale 0 to 100", "description": "as §1"}},
  "data": [
    {"smiles": "CN(C(=O)C1CC1)c1c(Cl)ccc(C2=C(O)c3ncccc3C(C)(C)S2(=O)=O)c1Cl", "note": "[Compound I-9, N-[2,6-dichloro-3-(8-hydroxy-5,5-dimethyl-6,6-dioxo-thiopyrano[4,3-b]pyridin-7-yl)phenyl]-N-methyl-cyclopropanecarboxamide]", "values": [
      {"measurement": "plant injury at 63 g/ha", "setting": "Zea mays [1]; 0.063 kg/ha", "value": 5, "unit": "%"},
      {"measurement": "Herbicidal activity", "setting": "Stellaria media; 0.063 kg/ha", "value": 100},
      {"measurement": "Herbicidal activity", "setting": "Polygonum convolvulus [2]", "value": 95},
      {"measurement": "Herbicidal activity", "setting": "Setaria viridis [3]", "value": 95}
    ]},
    {"smiles": "COC(=O)N(C)c1c(Cl)ccc(C2=C(O)c3ncccc3C(C)(C)S2(=O)=O)c1Cl", "note": "[Compound I-19, Methyl N-[2,6-dichloro-3-(8-hydroxy-5,5-dimethyl-6,6-dioxo-thiopyrano[4,3-b]pyridin-7-yl)phenyl]-N-methyl-carbamate]", "values": [
      {"measurement": "plant injury at 50 g/ha", "setting": "Zea mays [1]; 0.050 kg/ha", "value": 20, "unit": "%"},
      {"measurement": "Herbicidal activity", "setting": "Ambrosia artimisifolio; 0.025 kg/ha", "value": 85},
      {"measurement": "Herbicidal activity", "setting": "Ambrosia artimisifolio; 0.05 kg/ha", "value": 95},
      {"measurement": "Herbicidal activity", "setting": "Ambrosia artimisifolio; 0.1 kg/ha", "value": 90},
      {"measurement": "Herbicidal activity", "setting": "Avena Fatua; 0.025 kg/ha", "value": 50},
      {"measurement": "Herbicidal activity", "setting": "Avena Fatua; 0.05 kg/ha", "value": 80},
      {"measurement": "Herbicidal activity", "setting": "Avena Fatua; 0.1 kg/ha", "value": 90},
      {"measurement": "Herbicidal activity", "setting": "Lolium Multiflori; 0.025 kg/ha", "value": 25},
      {"measurement": "Herbicidal activity", "setting": "Lolium Multiflori; 0.05 kg/ha", "value": 35},
      {"measurement": "Herbicidal activity", "setting": "Lolium Multiflori; 0.1 kg/ha", "value": 75},
      {"measurement": "Herbicidal activity", "setting": "Polygonum convolvulus [4]; 0.025 kg/ha", "value": 45},
      {"measurement": "Herbicidal activity", "setting": "Polygonum convolvulus [4]; 0.05 kg/ha", "value": 45},
      {"measurement": "Herbicidal activity", "setting": "Polygonum convolvulus [4]; 0.1 kg/ha", "value": 95},
      {"measurement": "Herbicidal activity", "setting": "Echinocloa crus-galli [5]; 0.025 kg/ha", "value": 85},
      {"measurement": "Herbicidal activity", "setting": "Echinocloa crus-galli [5]; 0.05 kg/ha", "value": 90},
      {"measurement": "Herbicidal activity", "setting": "Echinocloa crus-galli [5]; 0.1 kg/ha", "value": 95},
      {"measurement": "Herbicidal activity", "setting": "Setaria viridis [6]; 0.025 kg/ha", "value": 85},
      {"measurement": "Herbicidal activity", "setting": "Setaria viridis [6]; 0.05 kg/ha", "value": 100},
      {"measurement": "Herbicidal activity", "setting": "Setaria viridis [6]; 0.1 kg/ha", "value": 100},
      {"measurement": "Herbicidal activity", "setting": "Digitaria sanguine; 0.025 kg/ha", "value": 95},
      {"measurement": "Herbicidal activity", "setting": "Digitaria sanguine; 0.05 kg/ha", "value": 98},
      {"measurement": "Herbicidal activity", "setting": "Digitaria sanguine; 0.1 kg/ha", "value": 95},
      {"measurement": "Herbicidal activity", "setting": "Bromus steliris; 0.025 kg/ha", "value": 80},
      {"measurement": "Herbicidal activity", "setting": "Bromus steliris; 0.05 kg/ha", "value": 85},
      {"measurement": "Herbicidal activity", "setting": "Bromus steliris; 0.1 kg/ha", "value": 95},
      {"measurement": "Herbicidal activity", "setting": "Abuthilon avicennae; 0.025 kg/ha", "value": 75},
      {"measurement": "Herbicidal activity", "setting": "Abuthilon avicennae; 0.05 kg/ha", "value": 85},
      {"measurement": "Herbicidal activity", "setting": "Abuthilon avicennae; 0.1 kg/ha", "value": 98},
      {"measurement": "Herbicidal activity", "setting": "Zea mays [7]; 0.025 kg/ha", "value": 15},
      {"measurement": "Herbicidal activity", "setting": "Zea mays [7]; 0.05 kg/ha", "value": 35},
      {"measurement": "Herbicidal activity", "setting": "Setaria faberi; 0.050 kg/ha", "value": 98},
      {"measurement": "pest or weed control at 50 g/ha", "setting": "Echinocloa crus-galli [8]", "value": 95, "unit": "%"},
      {"measurement": "Herbicidal activity", "setting": "Amaranthus retroflexus", "value": 98}
    ]},
    {"smiles": "CCC(=O)N(C)c1c(Cl)ccc(C2=C(O)c3ncccc3C(C)(C)S2(=O)=O)c1Cl", "note": "[Compound I-10, N-[2,6-dichloro-3-(8-hydroxy-5,5-dimethyl-6,6-dioxo-thiopyrano[4,3-b]pyridin-7-yl)phenyl]-N-methyl-propanamide]", "values": [
      {"measurement": "plant injury at 31 g/ha", "setting": "Zea mays [1]; 0.031 kg/ha", "value": 30, "unit": "%"},
      {"measurement": "Herbicidal activity", "setting": "Thlaspi arvense", "value": 100},
      {"measurement": "Herbicidal activity", "setting": "Stellaria media; 0.031 kg/ha", "value": 100},
      {"measurement": "Herbicidal activity", "setting": "Poa annua", "value": 98}
    ]},
    {"smiles": "CN(C(=O)C(F)F)c1c(Cl)ccc(C2=C(O)c3ncccc3C(C)(C)S2(=O)=O)c1Cl", "note": "[Compound I-18, N-[2,6-dichloro-3-(8-hydroxy-5,5-dimethyl-6,6-dioxo-thiopyrano[4,3-b]pyridin-7-yl)phenyl]-2,2-difluoro-N-methyl-acetamide]", "values": [
      {"measurement": "plant injury at 125 g/ha", "setting": "Zea mays [1]; 0.125 kg/ha", "value": 30, "unit": "%"},
      {"measurement": "Herbicidal activity", "setting": "Setaria faberi; 0.125 kg/ha", "value": 98},
      {"measurement": "Herbicidal activity", "setting": "Stellaria media; 0.125 kg/ha", "value": 100}
    ]}
  ]
}
